Assays:
Assay type in all cases: biochemical, Chlorella variabilis NC64A
[1] = molecular target: T1, Chlorella GMC oxidoreductase (Chlorella variabilis, UniProt A0A248QE08); assay: 13CO2 release from 1-13C-palmitate with the purified enzyme (membrane inlet mass spectrometry); settings: palmitic acid labelled with 13C on the carboxylic group
T1 construct: 6 His-tagged thioredoxin (N, cleaved yes); TEV protease-cleavage site (N, cleaved yes); made in house; host or cells: E. coli BL21-CodonPlus (DE3)-RIL
T1 sequence (A0A248QE08 62-654): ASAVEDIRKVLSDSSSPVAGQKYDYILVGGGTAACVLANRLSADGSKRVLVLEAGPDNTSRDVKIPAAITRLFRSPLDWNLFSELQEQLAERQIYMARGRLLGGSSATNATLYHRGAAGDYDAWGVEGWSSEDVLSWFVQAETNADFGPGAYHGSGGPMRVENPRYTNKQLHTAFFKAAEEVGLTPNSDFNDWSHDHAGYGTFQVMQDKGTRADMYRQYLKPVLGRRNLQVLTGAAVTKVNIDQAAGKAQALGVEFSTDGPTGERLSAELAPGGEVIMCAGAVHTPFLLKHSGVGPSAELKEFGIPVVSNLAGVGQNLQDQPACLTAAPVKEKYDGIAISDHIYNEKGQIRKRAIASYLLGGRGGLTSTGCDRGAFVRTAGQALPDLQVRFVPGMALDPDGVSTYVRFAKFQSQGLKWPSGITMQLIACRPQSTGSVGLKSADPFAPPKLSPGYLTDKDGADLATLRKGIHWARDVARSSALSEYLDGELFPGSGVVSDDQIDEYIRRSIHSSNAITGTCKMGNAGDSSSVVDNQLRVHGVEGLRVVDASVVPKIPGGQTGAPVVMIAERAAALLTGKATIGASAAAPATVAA
Experimental: All assays were performed in transparent glass vials sealed using caps with septum. Optimum pH was determined using a Teorell Stenhagen universal buffer (33 mM citric acid monohydrate, 33 mM phosphoric acid, 100 mM NaOH, 16.7 mM of boric acid, pH 8.5 adjusted with 1N HCl). Other assays were performed in 100 mM Tris HCl pH 8.5, 100 mM NaCl. Reaction mixtures (500 μL) typically contained 160 nM purified enzyme (stock ? solution 2.5 mg ml^−1) and 400 μM substrate (stock solution 10 mM in ethanol). In some assays, a lipase was used with the alkane synthase. In this case, substrate was a triacylglycerol. Generally, samples were shaken at 200 rpm during 15 min under LED-made white light at 2000 μmol ? photons m^−2s^−1. After the incubations, samples were heated at 95° C. during 15 min to stop the enzymatic reaction. Samples were cooled down and internal standard (hexadecane) was added (45 nmol from a 4.5 mM stock solution in chloroform). NaOH was then added to the reaction mixture (10 μL from a stock solution of 10 M) and samples were vortexed for 5 min. […] The hexane phase was collected by centrifugation and analyzed by GC-MS-FID. […] In FIG. 11 activity on 1-^13C-palmitate was monitored by release of ^13CO2 using membrane inlet mass spectrometry. […]
Online measurements of ^12CO2 (m/z=44) and ^13CO2 (m/z=45) were monitored using mass spectrometry (model Prima B, Thermo Scientific). […]

[2] = molecular target: T1, Chlorella GMC oxidoreductase; assay: Enzymatic assay with purified recombinant enzyme (GC-MS of products); settings: for conversion of substrate by the enzyme (product formed): purified recombinant enzyme, white light
Experimental: All assays were performed in transparent glass vials sealed using caps with septum. Optimum pH was determined using a Teorell Stenhagen universal buffer (33 mM citric acid monohydrate, 33 mM phosphoric acid, 100 mM NaOH, 16.7 mM of boric acid, pH 8.5 adjusted with 1N HCl). Other assays were performed in 100 mM Tris HCl pH 8.5, 100 mM NaCl. Reaction mixtures (500 μL) typically contained 160 nM purified enzyme (stock ? solution 2.5 mg ml^−1) and 400 μM substrate (stock solution 10 mM in ethanol). In some assays, a lipase was used with the alkane synthase. In this case, substrate was a triacylglycerol. Generally, samples were shaken at 200 rpm during 15 min under LED-made white light at 2000 μmol ? photons m^−2s^−1. After the incubations, samples were heated at 95° C. during 15 min to stop the enzymatic reaction. Samples were cooled down and internal standard (hexadecane) was added (45 nmol from a 4.5 mM stock solution in chloroform). NaOH was then added to the reaction mixture (10 μL from a stock solution of 10 M) and samples were vortexed for 5 min. Then 250 μL of hexane was added and samples were vortexed for 5 min to extract alkanes and alkenes. The hexane phase was collected by centrifugation and analyzed by GC-MS-FID. The analysis was done by direct injection of 100 μl of the headspace into a GC-MS. In FIG. 11 activity on 1-^13C-palmitate was monitored by release of ^13CO2 using membrane inlet mass spectrometry. Illuminations were provided by CBT-120 LEDs (Luminous, Billerica) either blue (peak at 460 nm, 25 nm FWHM), or red (peak at 635 nm, 15 nm FWHM) at an intensity of 850 μmol photons m^−2 s^−1.

[3] = molecular target: T2, alkane synthase activity of Chlorella homogenate (Chlorella variabilis, UniProt A0A248QE08); assay: Alkane synthase activity assay on Chlorella homogenate and purification fractions (SPME, GC-MS); settings: for effect of added co-factor on alkane synthase activity: added in different combinations to the solubilized microsomal fraction
T2 construct: Reaction mixtures contained 500 μL of each purification fraction; endogenous in cells; host or cells: Chlorella cells (homogenate, solubilized microsomal fraction, chromatography fractions)
T2 sequence (A0A248QE08 61-654 limits assumed): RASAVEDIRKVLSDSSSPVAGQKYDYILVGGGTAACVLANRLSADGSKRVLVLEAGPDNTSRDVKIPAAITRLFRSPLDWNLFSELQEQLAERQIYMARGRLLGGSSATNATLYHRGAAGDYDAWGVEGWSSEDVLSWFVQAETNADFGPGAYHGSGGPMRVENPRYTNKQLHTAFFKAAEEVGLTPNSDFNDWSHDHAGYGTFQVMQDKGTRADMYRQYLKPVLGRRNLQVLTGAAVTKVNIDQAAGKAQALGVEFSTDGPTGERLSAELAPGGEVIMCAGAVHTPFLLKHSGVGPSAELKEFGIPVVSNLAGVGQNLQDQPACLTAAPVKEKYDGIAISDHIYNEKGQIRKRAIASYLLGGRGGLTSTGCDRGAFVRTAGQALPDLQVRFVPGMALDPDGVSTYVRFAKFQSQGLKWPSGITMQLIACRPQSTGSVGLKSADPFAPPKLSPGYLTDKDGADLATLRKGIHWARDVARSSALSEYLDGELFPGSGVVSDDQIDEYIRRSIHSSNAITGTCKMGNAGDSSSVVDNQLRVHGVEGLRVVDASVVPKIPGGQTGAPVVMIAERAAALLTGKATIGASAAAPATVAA
Experimental: Enzymatic assays were performed in transparent glass vials sealed using caps with septum. Reaction mixtures contained 500 μL of each purification fraction, 200 μM of perdeuterated palmitic acid (10 mM stock solution in ethanol) and 45 nmol hexadecane as internal standard (4.5 mM stock solution in chloroform). Vials were agitated at 120 rpm overnight at 25° C. under a white light (intensity 120 μmol photons m^−2s^−1). Reaction was stopped by the addition of 10 μL NaOH 10 M through the septum using a syringe. Hydrocarbons produced were analyzed by incubating in the headspace of the vial a solid phase microextraction (SPME) fiber (DVB PDMS fused silica, 65 μm double-polar, Supelco) mounted on a holder. After 15 min incubation at room temperature the SPME fiber was immediately inserted into the injector of the GC-MS and desorbed at 250° C. GC-MS analysis was carried out as described below.

| Compound | conversion of substrate by the enzyme (product formed) [2] | effect of added co-factor on alkane synthase activity [3] | other results |
| --- | --- | --- | --- |
| CCCCCCCCCCCCCCC[13C](=O)O [1-^13C-palmitate, reference compound] | – | – | co-product released from labelled substrate [1]: production of ^13CO2 |
| O=C(O)CCCCCCCCCCCCCCCO [16-OH palmitic acid] | production of pentadecanol | – | – |
| Nc1ncnc2c1ncn2[C@@H]1O[C@H](COP(=O)(O)OP(=O)(O)OP(=O)(O)O)[C@@H](O)[C@H]1O [ATP] | – | None of them were found to increase the activity | – |
| [2H]C([2H])([2H])C([2H])([2H])C([2H])([2H])C([2H])([2H])C([2H])([2H])C([2H])([2H])C([2H])([2H])C([2H])([2H])C([2H])([2H])C([2H])([2H])C([2H])([2H])C([2H])([2H])C([2H])([2H])C([2H])([2H])C([2H])([2H])C(=O)O [Deuterated palmitic acid, perdeuterated (D31) palmitic acid] | – | – | formation of labelled pentadecane from labelled substrate ([3]; Chlorella cell homogenate, overnight incubation in sealed vial): labelled pentadecane could be detected |
| NC(=O)C1=CN([C@@H]2O[C@H](COP(=O)(O)OP(=O)(O)OC[C@H]3O[C@@H](n4cnc5c(N)ncnc54)[C@H](OP(=O)(O)O)[C@@H]3O)[C@@H](O)[C@H]2O)C=CC1 [NADPH] | – | None of them were found to increase the activity | – |
| NC(=O)c1ccc[n+]([C@@H]2O[C@H](COP(=O)([O-])OP(=O)(O)OC[C@H]3O[C@@H](n4cnc5c(N)ncnc54)[C@H](OP(=O)(O)O)[C@@H]3O)[C@@H](O)[C@H]2O)c1 [NADP] | – | None of them were found to increase the activity | – |
| CC(C)CCCC(C)CCCC(C)CCCC(C)CC(=O)O (stereo not drawn) [Phytanic acid, 3,7,11,15-tetramethylhexadecanoic acid] | converted into branched alkanes | – | – |
| CCCCCCCCCCCCCCCCC(=O)OCC(COC(=O)CCCCCCCCCCCCCCCC)OC(=O)CCCCCCCCCCCCCCCC [TAGs, glyceryl triheptadecanoate] | cannot use TAGs (triacylglycerol) directly as substrate | – | conversion of substrate by the enzyme in presence of a TAG lipase ([2]; purified enzyme plus TAG lipase): production of hydrocarbons is observed |
